Literature values, collected in patent publication US20130316010A1, “POLYMERIC MICROPARTICLES” (Case Western Reserve University, priority 2010, published 2013).

System: EGFR
Conditions: rodent glaucomatous optic neuropathy model and optic nerve crush model

AG1478
EGFR upregulation and activation of astrocytes: reverses this upregulation and activation of astrocytes | survival of RGCs: increases the survival of RGCs
